Values joined by “and” are separate entries in the source; they are usually repeats but may differ in a detail not shown here. Identical values can stand only once. Where only a bound is given, the exact number is not on record here.

For six compounds, IC50 and viability, T/C results are on record in PubChem BioAssay AID2060513 (Molecular Pharmacology Branch, DTP, NCI, 2025).

This assay has as its system 299254-011-R-J1-PDC complex spheroids viability. Put plainly: Anticancer human tumor 299254-011-R-J1-PDC patient-derived melanoma cell line growth inhibition [GQUAD]. Conditions: for viability, T/C: stronger effect = lower value. The procedure, abridged:
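Tumor cells were grown as complex spheroids with HUVEC endothelial cells and mesenchymal stem cells as stroma. G-quadruplex stabilizers were combined with targeted agents over half-log dilutions from near the clinical Cmax, or from 10 microM.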

Setting [1] is: curve of first compound, second compound 0.0316 µM.
The mark [2] stands for this setting: curve of first compound, second compound 0.1 µM.
[3] abbreviates: curve of first compound, second compound 0.316 µM.
Where [4] appears, read: curve of first compound, second compound 1 µM.
Setting [5] is: curve of first compound, second compound 3.16 µM.
Setting [6] is: curve of first compound, second compound 10 µM.
[7] abbreviates: second compound 0.0316 µM, first compound 0.0316 µM.
Where [8] appears, read: second compound 0.0316 µM, first compound 0.1 µM.
The mark [9] stands for this setting: second compound 0.0316 µM, first compound 0.316 µM.
Where [10] appears, read: second compound 0.0316 µM, first compound 1 µM.
[11] abbreviates: second compound 0.0316 µM, first compound 3.16 µM.
[12] abbreviates: second compound 0.0316 µM, first compound 10 µM.
Where [13] appears, read: second compound 0.1 µM, first compound 0.0316 µM.
[14] abbreviates: second compound 0.1 µM, first compound 0.1 µM.
[15] abbreviates: second compound 0.1 µM, first compound 0.316 µM.
[16] abbreviates: second compound 0.1 µM, first compound 1 µM.
Setting [17] is: second compound 0.1 µM, first compound 3.16 µM.
Setting [18] is: second compound 0.1 µM, first compound 10 µM.
The mark [19] stands for this setting: second compound 0.316 µM, first compound 0.0316 µM.
Setting [20] is: second compound 0.316 µM, first compound 0.1 µM.
[21] abbreviates: second compound 0.316 µM, first compound 0.316 µM.
[22] abbreviates: second compound 0.316 µM, first compound 1 µM.
The mark [23] stands for this setting: second compound 0.316 µM, first compound 3.16 µM.
Where [24] appears, read: second compound 0.316 µM, first compound 10 µM.
The mark [25] stands for this setting: second compound 1 µM, first compound 0.0316 µM.
The mark [26] stands for this setting: second compound 1 µM, first compound 0.1 µM.
[27] abbreviates: second compound 1 µM, first compound 0.316 µM.
Setting [28] is: second compound 1 µM, first compound 1 µM.
[29] abbreviates: second compound 1 µM, first compound 3.16 µM.
Setting [30] is: second compound 1 µM, first compound 10 µM.
[31] abbreviates: second compound 3.16 µM, first compound 0.0316 µM.
Setting [32] is: second compound 3.16 µM, first compound 0.1 µM.
The mark [33] stands for this setting: second compound 3.16 µM, first compound 0.316 µM.
Setting [34] is: second compound 3.16 µM, first compound 1 µM.
The mark [35] stands for this setting: second compound 3.16 µM, first compound 3.16 µM.
Setting [36] is: second compound 3.16 µM, first compound 10 µM.
Setting [37] is: second compound 10 µM, first compound 0.0316 µM.
Setting [38] is: second compound 10 µM, first compound 0.1 µM.
[39] abbreviates: second compound 10 µM, first compound 0.316 µM.
The mark [40] stands for this setting: second compound 10 µM, first compound 1 µM.
[41] abbreviates: second compound 10 µM, first compound 3.16 µM.
Where [42] appears, read: second compound 10 µM, first compound 10 µM.
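Note: spheroids exposed to the agents for seven days before readout.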
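Throughout, for viability, T/C: percent viability relative to DMSO vehicle control wells = 100%.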

A word on the IC50: it is the concentration needed to halve the response being measured. The viability, T/C is the result in the treated group divided by that in the control group, in per cent. Take `CCCS(=O)(=O)Nc1ccc(F)c(C(=O)c2c[nH]c3ncc(-c4ccc(Cl)cc4)cc23)c1F` + Cc1[nH]c2ccc(F)cc2c1-c1nc2c3cccnc3c3ncccc3c2[nH]1: the IC50 was 8.45 µM under setting [1]; 8.51 µM under setting [2]; 8.05 µM under setting [3]; 7.26 µM under setting [4]; 7.74 µM under setting [5]; 7.38 µM under setting [6]. Moreover, the viability, T/C reads like this: under setting [7], 91.6%; under setting [8], 109%; under setting [9], 109%; under setting [10], 88.3%; under setting [11], 76.8%; under setting [12], 45.4%. Besides, the viability, T/C is 98.6% under setting [13]; 110% under setting [14]; 100% under setting [15]; 82.7% under setting [16]; 105% under setting [17]; 41.9% under setting [18]. Besides, the viability, T/C by setting is: under setting [19], 86.6%; under setting [20], 123%; under setting [21], 110%; under setting [22], 108%; under setting [23], 90.7%; under setting [24], 40.4%. Besides, the viability, T/C is, setting by setting: under setting [25], 94.8%; under setting [26], 103%; under setting [27], 84.1%; under setting [28], 107%; under setting [29], 79.7%; under setting [30], 38.6%. Further, the viability, T/C reads like this: under setting [31], 91.4%; under setting [32], 109%; under setting [33], 92.3%; under setting [34], 115%; under setting [35], 82.6%; under setting [36], 40.7%. Further, the viability, T/C is 81.3% under setting [37]; 108% under setting [38]; 101% under setting [39]; 105% under setting [40]; 88.8% under setting [41]; 35.8% under setting [42].
For `COc1cc(C2c3cc4c(cc3C(OC3OC5COC(C)OC5C(O)C3O)C3COC(=O)C23)OCO4)cc(OC)c1O` (centres undefined), the viability, T/C was 102% and 90.8% and 122% (compound 0.0316 µM); 91.4% and 97.2% and 87.9% (compound 0.1 µM); 85.3% and 106% (2×) (compound 0.316 µM); 97.1% and 91.9% and 92.2% (compound 1 µM); 75.5% and 101% and 99% (compound 3.16 µM); 94.6% and 84.8% and 92.6% (compound 10 µM). In addition, for the setting “curve of compound”, the IC50 was above 10 µM.
Consider `Cc1[nH]c2ccc(F)cc2c1-c1nc2c3cccnc3c3ncccc3c2[nH]1`, for which the viability, T/C is, setting by setting: (compound 0.0316 µM) 99.1% [middle of 12 runs]; (compound 0.316 µM) 95.6% [middle of 12 runs]. In addition, the IC50 (compound alone, run of 02/20/2024) is above 10 µM and the IC50 (compound alone, run of 02/26/2024) is above 10 µM.
As to `Nc1ccn(C2OC(CO)C(O)C2(F)F)c(=O)n1` (centres undefined), the viability, T/C by setting is: (compound 0.0316 µM) 95.8% and 98.2% and 86.5%; (compound 0.1 µM) 83.6% and 88.4% and 76%; (compound 0.316 µM) 80.3% and 72.2% and 61.7%; (compound 1 µM) 41.2% and 60.1% and 52.5%; (compound 3.16 µM) 58.2% and 50.2% and 50.8%; (compound 10 µM) 53.6% and 73% and 51.9%. Also, under “curve of compound”, the IC50 was above 10 µM.
Consider `COc1cc(C2c3cc4c(cc3C(OC3OC5COC(C)OC5C(O)C3O)C3COC(=O)C23)OCO4)cc(OC)c1O` (centres undefined) + Cc1cnc(CNC(=O)c2c(=O)c3ccc(N4CCCN(C)CC4)nc3n3c2sc2ccccc23)cn1, for which the IC50 runs as follows: under setting [1], above 10 µM; under setting [2], above 10 µM; under setting [3], above 10 µM; under setting [4], above 10 µM; under setting [5], above 10 µM; under setting [6], 0.0316 µM. The viability, T/C is, setting by setting: under setting [7], 105%; under setting [8], 121%; under setting [9], 84.4%; under setting [10], 90.1%; under setting [11], 76.7%; under setting [12], 86.6%. The viability, T/C under setting [13] is 112%; the viability, T/C under setting [14] is 95.8%; the viability, T/C under setting [15] was 89%; the viability, T/C under setting [16] was 87.9%; the viability, T/C under setting [17] is 95.1%; the viability, T/C under setting [18] is 77.7%. In addition, the viability, T/C reads like this: under setting [19], 90%; under setting [20], 110%; under setting [21], 130%; under setting [22], 105%; under setting [23], 82.4%; under setting [24], 63.5%. Moreover, the viability, T/C was 90.4% under setting [25]; 84.8% under setting [26]; 103% under setting [27]; 75.9% under setting [28]; 84.9% under setting [29]; 61.9% under setting [30]. In addition, the viability, T/C under setting [31] is 78.5%; the viability, T/C under setting [32] is 79.5%; the viability, T/C under setting [33] is 69.1%; the viability, T/C under setting [34] is 73%; the viability, T/C under setting [35] was 82.4%; the viability, T/C under setting [36] is 59.2%. The viability, T/C was 31% under setting [37]; 16.7% under setting [38]; 67.1% under setting [39]; 69.8% under setting [40]; 33.5% under setting [41]; 0.3% under setting [42].
As for `O=c1[nH]cc(F)c(=O)[nH]1`, the viability, T/C reads like this: (compound 0.0316 µM) 117% and 81.7% and 100%; (compound 0.1 µM) 110% and 105% and 96.5%; (compound 0.316 µM) 114% and 113% and 103%; (compound 1 µM) 103% and 86.2% and 122%; (compound 3.16 µM) 114% and 113% and 83.2%; (compound 10 µM) 103% and 85.3% and 87.8%. Also, for the setting “curve of compound”, the IC50 is above 10 µM.
